The values that follow come from the supplement of paper PMC11061612.

Experiment [1] deals with KYSE-220 (Esophageal Squamous Cell Carcinoma). Kind of experiment: combination Emax (second highest fraction inhibited in the dose matrix, 72 h); higher = more inhibition; extreme values may be limits of the assay. The essentials:
(§1)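 Cell lines in DMEM/F12 or RPMI with 10% FBS were plated in 1536-well plates, held 24 hours at 37°C, 5% CO2, then given two-drug dose matrices for 72 hours (DMSO typically 0.2%). Viability was read by CellTiter-Glo 2.0 luminescence and scaled as inhibition from 0 (vehicle wells) to 1 (blank wells). Combination Emax is the second-highest inhibition in the matrix; Bliss excess is observed combination effect minus expected EA + EB − EA·EB, EA and EB being single-agent effects.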

The subject of experiment [2] is 22RV1 (Prostate Carcinoma). Described as above. The method, boiled down:
as §1

In experiment [3] the test system is HCC70 (Breast Carcinoma). The description is as above. The method, boiled down: as §1
Experiment [4] deals with JHU-022 (Oral Cavity Carcinoma). Kind of experiment: Bliss excess, mean over the matrix (fraction); higher = more synergy. The essentials: as §1
Experiment [5] has as its system KYSE-220 (Esophageal Squamous Cell Carcinoma). Described as above. The method, boiled down:
as §1

Experiment [6] deals with JHH-2 (Hepatocellular Carcinoma). The experiment is described as above. The essentials:
as §1

The subject of experiment [7] is UACC-812 (Breast Carcinoma). The experiment is described as above. The essentials:
as §1

Experiment [8] deals with SW620 (Colorectal Carcinoma). The description is as above. The essentials:
as §1

For experiment [9], the system named is NCI-H441 (Lung Adenocarcinoma). The description is as above. The method, boiled down: as §1
Experiment [10] deals with 22RV1 (Prostate Carcinoma). The experiment is described as above. The essentials: as §1
Experiment [11] relates to NCI-H1651 (Lung Adenocarcinoma). Described as above. The method, boiled down:
as §1

For experiment [12], the system named is MHH-ES-1 (Ewing's Sarcoma). The experiment is described as above. The method, boiled down: as §1
In experiment [13] the test system is HCC1395 (Breast Carcinoma). Described as above. The method, boiled down: as §1
Experiment [14] deals with NCI-H2087 (Lung Adenocarcinoma). The description is as above. The essentials: as §1
Another experiment deals with EW-7 (Ewing's Sarcoma). The experiment is described as above. The method, boiled down: as §1
The next experiment has as its system EB2 (Burkitt's Lymphoma). The experiment is described as above. The method, boiled down:
as §1

In experiment [15] the test system is NCI-H1703 (Squamous Cell Lung Carcinoma). The description is as above. The essentials: as §1
The subject of experiment [16] is HCC70 (Breast Carcinoma). The description is as above. The essentials: as §1
In the next experiment the test system is PEO1 (Ovarian Carcinoma). Described as above. The method, boiled down:
as §1

The next experiment deals with WM1552C (Melanoma). The experiment is described as above. The essentials: as §1
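Wherever Bliss excess, mean over the matrix is given: after 72 h of two-drug dosing.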

Regarding `CN(CCO)CC[C@H](CSc1ccccc1)Nc1ccc(S(=O)(=O)NC(=O)c2ccc(N3CCC([C@@H](O)c4ccccc4-c4ccc(Cl)cc4)CC3)cc2)cc1S(=O)(=O)C(F)(F)F` [AZD4320] + C1CN(CCC1(C(=O)N[C@@H](CCO)C2=CC=C(C=C2)Cl)N)C3=NC=NC4=C3C=CN4 [Capivasertib] (first compound max 1 µM, 7x7, partner max 3 µM), the “combination Emax” value in experiment [1] stood at 0.237; in [2] it was 0.471; in the experiment on HCC70 (Breast Carcinoma) [3], 0.813. For the same compound, the Bliss excess is -0.0491 in experiment [4]; -0.0056 in experiment [5]; -0.0031 in [6]; -0.0135 in [7]; -0.0498 in experiment [8]; -0.0503 in experiment [9]. The Bliss excess in [10] was -0.0486; in [11] it was -0.0005; in [12] it was -0.0261; in experiment [13], -0.0479; in experiment [14] it was -0.0696; with EW-7 (Ewing's Sarcoma) it was 0.0586. Further, the Bliss excess was 0.0549 in the experiment on EB2 (Burkitt's Lymphoma); 0.0251 in experiment [15]; 0.0327 in the experiment with HCC70 (Breast Carcinoma) [16]; -0.0691 in the experiment on PEO1 (Ovarian Carcinoma); -0.0419 with WM1552C (Melanoma).

Take `CN(CCO)CC[C@H](CSc1ccccc1)Nc1ccc(S(=O)(=O)NC(=O)c2ccc(N3CCC([C@@H](O)c4ccccc4-c4ccc(Cl)cc4)CC3)cc2)cc1S(=O)(=O)C(F)(F)F` [AZD4320] + C=CCn1c(=O)c2cnc(Nc3ccc(N4CCN(C)CC4)cc3)nc2n1-c1cccc(C(C)(C)O)n1 [AZD1775] (first compound max 1 µM, partner max 1 µM): the results for the “combination Emax” value (in experiment [1]; in experiment [2]; with HCC70 (Breast Carcinoma) [3]) were 0.795, 0.321 and 0.607, respectively. For the same compound, the Bliss excess in experiment [4] was 0.032; in experiment [5] it was -0.047; in experiment [6], -0.0067; in [7], -0.0281; in experiment [8] it was 0.021; in experiment [9], 0.0365. In addition, the Bliss excess in experiment [10] is -0.0487; in experiment [11], 0.0154; in [12] it was 0.0439; in experiment [13], -0.0345; in [14], 0.0088; with EW-7 (Ewing's Sarcoma), 0.14. In addition, the Bliss excess with EB2 (Burkitt's Lymphoma) stood at 0.0346; in [15], 0.0572; with HCC70 (Breast Carcinoma) [16], 0.006; with PEO1 (Ovarian Carcinoma), 0.0352; in the experiment on WM1552C (Melanoma), 0.0085.

Turning to `CN(CCO)CC[C@H](CSc1ccccc1)Nc1ccc(S(=O)(=O)NC(=O)c2ccc(N3CCC([C@@H](O)c4ccccc4-c4ccc(Cl)cc4)CC3)cc2)cc1S(=O)(=O)C(F)(F)F` [AZD4320] + CC(=O)O[C@H]1C(=O)[C@@]2(C)[C@H]([C@H](OC(=O)c3ccccc3)[C@]3(O)C[C@H](OC(=O)[C@H](O)[C@@H](NC(=O)c4ccccc4)c4ccccc4)C(C)=C1C3(C)C)[C@]1(OC(C)=O)CO[C@@H]1C[C@@H]2O [Paclitaxel] (first compound max 1 µM, 7x7, partner max 3 µM), the “combination Emax” value came out at 0.793 in [1], 0.845 in [2] and 0.875 with HCC70 (Breast Carcinoma) [3]. Besides, the Bliss excess in experiment [4] is 0.155; in experiment [5], 0.0169; in experiment [6], -0.0037; in [7], 0.0887; in experiment [8], 0.11; in experiment [9], 0.0861. In addition, the Bliss excess in experiment [10] is -0.0017; in experiment [11], -0.0099; in experiment [12], 0.0393; in [13], 0.174; in [14] it was 0.13; in the experiment with EW-7 (Ewing's Sarcoma), 0.132. The Bliss excess with EB2 (Burkitt's Lymphoma) was -0.0306; in experiment [15] it was -0.0223; in the experiment on HCC70 (Breast Carcinoma) [16] it was 0.0533; in the experiment on PEO1 (Ovarian Carcinoma) it was -0.0057; with WM1552C (Melanoma), -0.0076.

Consider `CN(CCO)CC[C@H](CSc1ccccc1)Nc1ccc(S(=O)(=O)NC(=O)c2ccc(N3CCC([C@@H](O)c4ccccc4-c4ccc(Cl)cc4)CC3)cc2)cc1S(=O)(=O)C(F)(F)F` [AZD4320] + CCN(CCO)CCCOc1ccc2c(Nc3cc(CC(=O)Nc4cccc(F)c4)[nH]n3)ncnc2c1 [AZD2811] (first compound max 1 µM, 7x7, partner max 1 µM), for which the “combination Emax” value in experiment [1] stood at 0.196; in experiment [2], 0.259; with HCC70 (Breast Carcinoma) [3] it was 0.66. Besides, the Bliss excess in [4] was -0.0183; in [5], 0.0129; in experiment [6], -0.0489; in [7], -0.0194; in [8] it was 0.0931; in experiment [9], -0.0407. For the same compound, the Bliss excess in experiment [10] is -0.0342; in experiment [11], -0.0013; in experiment [12] it was 0.14; in experiment [13] it was 0.0121; in experiment [14] it was 0.0018; with EW-7 (Ewing's Sarcoma), 0.126. For the same compound, the Bliss excess in the experiment with EB2 (Burkitt's Lymphoma) is 0.0254; in experiment [15], 0.0384; in the experiment on HCC70 (Breast Carcinoma) [16] it was 0.0345; in the experiment on PEO1 (Ovarian Carcinoma), -0.0249; in the experiment with WM1552C (Melanoma), -0.0152.

For `CN(CCO)CC[C@H](CSc1ccccc1)Nc1ccc(S(=O)(=O)NC(=O)c2ccc(N3CCC([C@@H](O)c4ccccc4-c4ccc(Cl)cc4)CC3)cc2)cc1S(=O)(=O)C(F)(F)F` [AZD4320] + C[C@@H]1COCCN1C2=NC(=NC(=C2)C3(CC3)[S@](=N)(=O)C)C4=C5C=CNC5=NC=C4 [AZD6738] (first compound max 1 µM, 7x7, partner max 10 µM), the results for the “combination Emax” value (in [1]; in experiment [2]; with HCC70 (Breast Carcinoma) [3]) were 0.877, 0.624 and 0.845, respectively. Moreover, the Bliss excess in [4] was -0.0035; in experiment [5], -0.0076; in [6], -0.0186; in experiment [7], -0.0348; in experiment [8], -0.0151; in [9] it was -0.048. In addition, the Bliss excess in [10] was -0.133; in experiment [11], 0.0261; in [12], 0.0133; in experiment [13], 0.0007; in [14] it was 0.0149; in the experiment on EW-7 (Ewing's Sarcoma), 0.0835. Also, the Bliss excess is 0.0248 in the experiment on EB2 (Burkitt's Lymphoma); 0.0053 in experiment [15]; -0.0318 in the experiment with HCC70 (Breast Carcinoma) [16]; 0.0134 with PEO1 (Ovarian Carcinoma); -0.0969 in the experiment on WM1552C (Melanoma).
